The text below walks through data of US20260023070A1, “OPTOGENETIC ALPHA-SYNUCLEIN AGGREGATION SYSTEM-BASED COMPOUND SCREENING PLATFORM IN PD-hiPSC-mDA NEURONS” (The Johns Hopkins University, priority 2022, published 2026).

One assay has as its system opto-α-syn SH-SY5Y cells. Nature of the assay: OASIS-based high-content imaging assay of light-induced α-syn aggregation (5G4 staining, Aggregates Induction Score). The conditions noted are these: for AIS compared to blue light-illuminated DMSO control: two independent experiments, 24-well culture conditions, blue light stimulation; for AIS, aggregates induction score: validation of 19 hits, 24-well plates, blue light, AIS normalized to positive control (blue light, DMSO) set as 1.0. Format: cell-based, human. Here is the method: The opto-α-syn expressing SH-SY5Y cells were seeded in 96-well black flat bottom imaging microplates (Falcon) at 30,000 cells per well in 100 μL of complete media using E1-ClipTip electronic multichannel pipette (Thermo Fisher Scientific) and incubated in 37° C. and 5% CO2 humidified incubator. After 18 h of incubation, 10 μL of 10 μM compounds (column 2 to 10) or 1% DMSO (column 1 and 12) were added (final concentration of DMSO is 0.1%). In order to induce aggregations, the plates were illuminated with blue light (26 μW/mm^2) on customized blue light illumination 96-well plates for 2 h. Afterward, cells were fixed in 4% paraformaldehyde (PFA) for 15 min and stained with the aggregated-α-syn antibody (5G4) after permeabilization with 0.1% Triton X-100/0.5% BSA/PBS solution. […] To analyze images, the automated aggregation quantification algorithm and cell counting algorithm in the form of macro are developed using ImageJ software. Briefly, the algorithm includes the inversion, subtracting background, threshold selection, analyzing particles with ranged size and circularity. The Aggregates Induction Score (AIS) is calculated using, the following equation: […]
where N^agg is the number of aggregates, ^Ntotal is the number of total cells. The AIS in each well is normalized by the AIS in positive control which is set as 1.0. […] The hit selection strategy was based on calculated AIS; hits were defined as AIS<0.5. […] Two independent experiments were performed, and total 10 images per well are analyzed to calculate AIS.
As illustrated in FIGS. 8A-8E, high-content imaging screening with the optogenetic α-syn aggregation system was performed, following the schematic representation of the process of high-content imaging (HCI) screening with optogenetics-assisted method of alpha-synuclein aggregation induction system (OASIS) (FIG. 8A). SH-SY5Y cells expressing opto-α-syn were in dark or exposed to blue light (26 μW/mm^2 at 470 nm, 1 Hz, 1 s) for 1.5 h under 96-well plate culture conditions, and then immunostained with 5G4 antibody. The equation of Aggregates Induction Score (AIS) (FIG. 8B) was used for the calculation of Z′-factor for HCI screening with OASIS (FIG. 8C). […] Arrow represents the degree of separation (Z′-factor) between light-illuminated and darkness controls. […] Detailed information of numbered compounds was described in Table 1. One-way ANOVA followed by Dunnett's post hoc test (n=10 or 20, 5 or 10 images each from two independent experiments). *P<0.05, **P<0.01, ***P<0.001, ****P<0.0001.
As illustrated in FIGS. 9A-9B, high-content imaging screening with the optogenetic α-syn aggregation system was performed. The measurement of 5G4^+ aggregates in opto-mock or opto-α-syn SH-SY5Y neuronal cells was assessed. Cells were in dark or exposed to blue light (26 μW/mm^2 at 470 nm, 1 Hz, 1 s) for 1.5 h, and then immunostained with 5G4 antibody. […] Images were converted to grayscale, and a threshold was adjusted to exclude the background based on the size of particles. Once the value of threshold was determined, all the images were applied with the fixed threshold, and then the number of aggregates was measured (FIG. 9A). Number of DAPI from the original images were counted (FIG. 9B). Representative images of opto-α-syn SH-SY5Y neuronal cells treated with 19 compounds under 24-well plate culture conditions were imaged. SH-SY5Y cells expressing opto-α-syn were in dark or exposed to blue light (34 μW/mm^2 at 470 nm, 1 Hz, 0.5 s) for 1.5 h, and then immunostained with 5G4 antibody.

Assay [1] concerns opto-α-syn PD hiPSC-derived mDA neurons. The assay is described as follows: Light-induced α-syn aggregation and neurotoxicity in opto-α-syn PD hiPSC-derived mDA neurons. The settings on record: blue light 7 days; compared to DMSO control; significant at 1 and 10 nM CDC, 10 and 100 nM BAG. Format: cell-based, human. Here is the method:
Whether these potential hit compounds can inhibit α-syn aggregation and rescue aggregation-induced neuronal toxicity was tested on PD hiPSC-derived mDA neurons. The top 5 ranked small compounds in FIGURE SE were selected and these compounds to were used to treat opto-α-syn PD hiPSC-derived mDA neurons at three different concentrations (1 nM, 10 nM, 100 nM) with blue light stimulation. […] Overall, the two compounds were finally selected among the potential hit drugs from our novel opto-α-syn neuronal cell model-based primary screening (FIG. 11D), and they considerably rescued neuronal cell death from aggregation-induced TH^+ mDA neuron-selective toxicity in PD-iPSC derived neurons. To identify possible molecules involved in this compound-mediated recovery of TH^+ mDA neurons, RNA-sequencing (RNA-seq) analysis was performed with four different samples (dark condition with DMSO, blue light stimulation with DMSO, blue light stimulation with BAG treatment, and blue light stimulation with CDC treatment). To find BAG- or CDC-responsive genes, differentially expressed genes (DEGs) of DMSO-treated samples upon blue light stimulation were first extracted, and then the DEGs were filtered with criteria of which became non-DEGs in response to CDC or BAG treatment. […]
The effect of 5 selected compounds on opto-α-syn-expressing PD hiPSC-derived mDA neurons was evaluated. […]

The subject of assay [2] is mouse primary neurons treated with α-syn PFF. Nature of the assay: α-syn PFF model in mouse primary neurons (TX-insoluble pathologic α-syn). Format: cell-based. Here is the method: To validate the effects of these two compounds on the OASIS-independent model, α-syn PFF were treated with mouse primary neurons and non-OASIS-human PD hiPSC-derived mDA neurons with CDC 021 and BAG 956.

The test system of assay [3] is blue light-illuminated opto-α-syn-mDA neurons. The assay is described as follows: Autophagy and aggregate clearance in blue light-illuminated opto-α-syn-mDA neurons. Format: cell-based, human. The settings on record: additional treatment with BAG 956, blue light-illuminating condition. Here is the method: Because autophagy can be activated by the inhibition of PI 3-kinase (PI3K) or the PDK1 pathway, it was tested whether treatment with BAG 956 can induce the autophagic flux to decrease α-syn aggregates in opto-α-syn mDA neurons and MOs.

SMILES strings stand for the structures.

For `Cc1cc(Nc2nc(N[C@@H](C)c3ncc(F)cn3)ncc2Cl)n[nH]1` [AZD 1480], in the assay on opto-α-syn SH-SY5Y cells, the “AIS compared to blue light-illuminated DMSO control” value is recorded as “significant decrease” and the “AIS, aggregates induction score” value was determined as 0.31. As for `CC(C)c1ccc2oc3nc(N)c(C(=O)O)cc3c(=O)c2c1` [Amlexanox], the “AIS, aggregates induction score” value in the assay on opto-α-syn SH-SY5Y cells came to 0.53. For the compound `O=C1NC(=O)c2c1c1c3ccccc3[nH]c1c1[nH]c3ccccc3c21` [Arcyriaflavin A], in the assay with opto-α-syn SH-SY5Y cells, the “AIS compared to blue light-illuminated DMSO control” value was “significant decrease” and the “AIS, aggregates induction score” value is listed as 0.37. Take `CC1(C)C(=O)N=C2C1=C(O)C(=O)c1ccccc12` [BVT 948]: in the assay with opto-α-syn SH-SY5Y cells, the “AIS compared to blue light-illuminated DMSO control” value is “significant decrease” and the “AIS, aggregates induction score” value amounted to 0.36. Take `COc1cc2nc(N3CCC(N4CCCCC4)CC3)nc(NC3CCCCCC3)c2cc1OC.Cl.Cl` [C 021 dihydrochloride]: in the assay on opto-α-syn SH-SY5Y cells, the “AIS compared to blue light-illuminated DMSO control” value is recorded as “significant decrease” and the “AIS, aggregates induction score” value was found to be 0.19. Besides, the “survival rate of TH+ mDA neurons” value in assay [1] was “significant increase”. Also, in assay [2], the “pathologic α-syn in the Triton X-100 (TX)-insoluble fraction” value was “significantly reduced”. As to `O=C1CCc2cc(OCCCCc3nnnn3C3CCCCC3)ccc2N1` [Cilostazol], the “AIS, aggregates induction score” value with opto-α-syn SH-SY5Y cells stood at 0.65. Turning to `CCCCCCCCCCC(C)(C)C(=O)Nc1c(OC)cc(OC)cc1OC` [Compound C1976, CI 976], in the assay on opto-α-syn SH-SY5Y cells, the “AIS, aggregates induction score” value was determined as 0.63.

As to `NS(=O)(=O)c1cc2c(cc1Cl)NC(C1CC3C=CC1C3)NS2(=O)=O` (stereo not shown) [Cyclothiazide], in the assay on opto-α-syn SH-SY5Y cells, the “AIS, aggregates induction score” value was 0.68. Take `C[C@@H]1C[C@H]2[C@@H]3CCC4=CC(=O)C=C[C@]4(C)[C@@]3(F)[C@@H](O)C[C@]2(C)[C@@]1(O)C(=O)CO` [Dexamethasone]: in the assay on opto-α-syn SH-SY5Y cells, the “AIS, aggregates induction score” value is 0.74.

`O=C(O)c1ccccc1C(=O)Nc1ccc(-c2ccccc2)cc1` [Kartogenin]: in the assay on opto-α-syn SH-SY5Y cells, the “AIS, aggregates induction score” value was 0.98.

Take `COc1c(C)c2c(c(O)c1C/C=C(\C)CCC(=O)OCCN1CCOCC1)C(=O)OC2` [Mycophenolate mofetil]: the “AIS, aggregates induction score” value with opto-α-syn SH-SY5Y cells is recorded as 0.71. Turning to `COc1c(C)c2c(c(O)c1C/C=C(\C)CCC(=O)O)C(=O)OC2` [Mycophenolic acid], the “AIS, aggregates induction score” value in the assay on opto-α-syn SH-SY5Y cells is listed as 0.57.

Turning to `CCCN(CCC)CCc1ccc(OC)c(OCCc2ccccc2)c1.Cl` [NE 100 hydrochloride], the “AIS, aggregates induction score” value in the assay on opto-α-syn SH-SY5Y cells is listed as 0.53. Consider `CC(=O)c1cc2c(o1)C(=O)c1ccccc1C2=O` [Napabucasin], for which the “AIS, aggregates induction score” value in the assay with opto-α-syn SH-SY5Y cells is on record as 0.97. Take `CCOC(=O)c1ccc(N(C)c2csc(-c3ccccc3)n2)cc1` [Neuropathiazol]: the “AIS, aggregates induction score” value in the assay on opto-α-syn SH-SY5Y cells is on record as 0.73. For `CN(C)CCc1c[nH]c2ccc(Cn3cncn3)cc12` [Rizatriptan benzoate], the “AIS, aggregates induction score” value with opto-α-syn SH-SY5Y cells came out at 0.59. As to `CCc1c(C(=O)Nc2cc(S(=O)(=O)N(CC)CC)ccc2O)[nH]c(C)c1C(C)=O` [XD 14], in the assay on opto-α-syn SH-SY5Y cells, the “AIS, aggregates induction score” value was 0.75. As for `CO/C1=C\C(C)=C\[C@@H](C)[C@@H](O)[C@@H](C)C/C(C)=C/C=C/[C@H](OC)[C@@H]([C@@H](C)[C@@H](O)[C@H](C)[C@@]2(O)C[C@@H](O)[C@H](C)[C@@H](C(C)C)O2)OC1=O` [bafilomycin A1], in assay [3], the “BAG 956-mediated level of TH+ mDA neurons” value was “reversed” and the “BAG 956-mediated reduction of 5G4+ α-syn aggregates” value is “reversed”.
